Data on 28 molecules can be found in patent US10590140B2, “Tetrahydropyrimidodiazepine and dihydropyridodiazepine compounds for treating pain and pain related conditions” (ESTEVE PHARMACEUTICALS, S.A., priority 2016, dated 2020).

As usually defined, the Ki is a measure of affinity in units of concentration, obtained from inhibition or displacement.

Sequence of human α2δ-1 subunit of Cav2.2 calcium channel (P54289 25-1103): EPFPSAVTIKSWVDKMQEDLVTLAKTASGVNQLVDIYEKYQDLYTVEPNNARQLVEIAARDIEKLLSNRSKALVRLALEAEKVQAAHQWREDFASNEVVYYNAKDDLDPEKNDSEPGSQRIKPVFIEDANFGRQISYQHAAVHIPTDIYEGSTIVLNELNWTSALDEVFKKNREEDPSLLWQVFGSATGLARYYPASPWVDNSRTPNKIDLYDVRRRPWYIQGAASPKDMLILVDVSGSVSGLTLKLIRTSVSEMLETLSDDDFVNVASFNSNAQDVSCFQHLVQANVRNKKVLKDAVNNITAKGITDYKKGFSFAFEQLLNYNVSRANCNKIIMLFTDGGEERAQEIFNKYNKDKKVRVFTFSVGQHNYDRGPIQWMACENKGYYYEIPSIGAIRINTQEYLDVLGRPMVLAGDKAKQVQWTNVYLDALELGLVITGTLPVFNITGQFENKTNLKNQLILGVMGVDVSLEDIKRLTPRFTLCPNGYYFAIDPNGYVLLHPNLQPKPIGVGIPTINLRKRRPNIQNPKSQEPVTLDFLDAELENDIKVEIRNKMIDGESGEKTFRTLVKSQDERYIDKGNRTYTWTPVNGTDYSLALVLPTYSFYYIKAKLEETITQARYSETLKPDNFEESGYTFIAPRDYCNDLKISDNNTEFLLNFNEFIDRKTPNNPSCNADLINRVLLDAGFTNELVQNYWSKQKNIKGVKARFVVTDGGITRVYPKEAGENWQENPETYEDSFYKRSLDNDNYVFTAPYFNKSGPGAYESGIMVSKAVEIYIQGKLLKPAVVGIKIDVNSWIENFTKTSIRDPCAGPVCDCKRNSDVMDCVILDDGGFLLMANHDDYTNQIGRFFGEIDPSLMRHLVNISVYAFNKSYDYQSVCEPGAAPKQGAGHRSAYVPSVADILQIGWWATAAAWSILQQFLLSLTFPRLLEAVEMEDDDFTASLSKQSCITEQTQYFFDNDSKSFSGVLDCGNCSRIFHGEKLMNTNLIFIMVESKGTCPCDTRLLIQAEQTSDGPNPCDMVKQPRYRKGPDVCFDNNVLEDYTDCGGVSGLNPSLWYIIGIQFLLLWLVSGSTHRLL

This test addresses human α2δ-1 subunit of Cav2.2 calcium channel (Homo sapiens (Human), UniProt P54289). Put plainly: Binding assay to human α2δ-1 subunit of Cav2.2 calcium channel ([3H]-Gabapentin). The following applies: binding to α2δ-1, [3H]-Gabapentin; read-out: Ki (nM) α2δ-1. Put shortly: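 Radioactivity on dried GF/C filters quantified by scintillation after filtration and three cold Tris-HCl (pH 7.4) washes. Incubation ran 60 min at 27° C with [3H]-gabapentin; 10 μM pregabalin gave nonspecific binding.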
In the case of `CNc1ncc2c(n1)N(C)CCN(c1cccc(CO[C@H](CCN(C)C(=O)OC(C)(C)C)c3ccccc3)c1)C2=O` [Example 132, tert-butyl (R)-methyl(3-((3-(9-methyl-2-(methylamino)-5-oxo-5,7,8,9-tetrahydro-6H-pyrimido[4,5-e][1,4]diazepin-6-yl)benzyl)oxy)-3-phenylpropyl)carbamate], the Ki is > 3000 nM. Then `CN(CCC(Oc1cccc(N2CCN(C)c3nc(N(C)C)ncc3C2=O)c1)c1cccs1)C(=O)OCC[Si](C)(C)C` (stereo not shown) [Example 133, 2-(trimethylsilyl)ethyl (3-(3-(2-(dimethylamino)-9-methyl-5-oxo-5,7,8,9-tetrahydro-6H-pyrimido[4,5-e][1,4]diazepin-6-yl)phenoxy)-3-(thiophen-2-yl)propyl)(methyl) carbamate], with > 3000 nM; and `CCNc1ncc2c(n1)N(C)CCN(c1cccc(OC(CCN(CCF)C(=O)OC(C)(C)C)c3cccs3)c1)C2=O` (stereo not shown) [Example 134, tert-butyl (3-(3-(2-(ethylamino)-9-methyl-5-oxo-5,7,8,9-tetrahydro-6H-pyrimido[4,5-e][1,4]diazepin-6-yl)phenoxy)-3-(thiophen-2-yl)propyl)(2-fluoroethyl)carbamate], with > 3000 nM; and `CCNc1ncc2c(n1)N(C)CCN(Cc1cccc(OC(CN(C)C(=O)OC(C)(C)C)c3ccccc3)c1)C2=O` (stereo not shown) [Example 135, tert-butyl (2-(3-((2-(ethylamino)-9-methyl-5-oxo-5,7,8,9-tetrahydro-6H-pyrimido[4,5-e][1,4]diazepin-6-yl)methyl)phenoxy)-2-phenylethyl)(methyl) carbamate], with > 3000 nM. For `CCNc1ncc2c(n1)N(C)CCN(Cc1ccc(OC(CN(C)C(=O)OC(C)(C)C)c3ccccc3)cc1)C2=O` (stereo not shown) [Example 136, tert-butyl (2-(4-((2-(ethylamino)-9-methyl-5-oxo-5,7,8,9-tetrahydro-6H-pyrimido[4,5-e][1,4]diazepin-6-yl)methyl)phenoxy)-2-phenylethyl)(methyl) carbamate], the Ki is > 3000 nM. On to `CCNc1ncc2c(n1)N(C)CCN(Cc1ccc(CN(C)C(=O)OC(C)(C)C)cc1)C2=O` [Example 137, tert-butyl (4-((2-(ethylamino)-9-methyl-5-oxo-5,7,8,9-tetrahydro-6H-pyrimido[4,5-e][1,4]diazepin-6-yl)methyl)benzyl) (methyl)carbamate], for which the Ki was > 3000 nM.

Take `COc1ncc2c(n1)N(C)CCN(c1cccc(CO[C@H](CCN(C)C(=O)OC(C)(C)C)c3ccccc3)c1)C2=O` [Example 138, tert-Butyl (R)-(3-((3-(2-methoxy-9-methyl-5-oxo-5,7,8,9-tetrahydro-6H-pyrimido[4,5-e][1,4]diazepin-6-yl)benzyl)oxy)-3-phenylpropyl)(methyl)carbamate]: the Ki is > 3000 nM.

For `COc1ncc2c(n1)N(C)CCN(c1cccc(COC(CCN(C)C(=O)OC(C)(C)C)c3cccs3)c1)C2=O` (stereo not shown) [Example 139, tert-butyl (3-((3-(2-methoxy-9-methyl-5-oxo-5,7,8,9-tetrahydro-6H-pyrimido[4,5-e][1,4]diazepin-6-yl)benzyl)oxy)-3-(thiophen-2-yl)propyl)(methyl)carbamate], the Ki is > 3000 nM.

For the molecule `CN(CC[C@@H](OCc1cccc(N2CCN(C)c3nc(O)ncc3C2=O)c1)c1ccccc1)C(=O)OC(C)(C)C` [Example 140, tert-Butyl (R)-(3-((3-(2-hydroxy-9-methyl-5-oxo-5,7,8,9-tetrahydro-6H-pyrimido[4,5-e][1,4]diazepin-6-yl)benzyl)oxy)-3-phenylpropyl)(methyl)carbamate], the inhibition constant Ki was > 3000 nM.

In the case of `CN(CCC(OCc1cccc(N2CCN(C)c3nc(O)ncc3C2=O)c1)c1cccs1)C(=O)OC(C)(C)C` (stereo not shown) [Example 141, tert-butyl (3-((3-(2-hydroxy-9-methyl-5-oxo-5,7,8,9-tetrahydro-6H-pyrimido[4,5-e][1,4]diazepin-6-yl)benzyl)oxy)-3-(thiophen-2-yl)propyl)(methyl)carbamate], the Ki was > 3000 nM. Then `Cc1ncc2c(n1)N(C)CCN(c1cccc(CO[C@H](CCN(C)C(=O)OC(C)(C)C)c3ccccc3)c1)C2=O` [Example 142, tert-Butyl (R)-(3-((3-(2,9-dimethyl-5-oxo-5,7,8,9-tetrahydro-6H-pyrimido[4,5-e][1,4]diazepin-6-yl)benzyl)oxy)-3-phenylpropyl)(methyl)carbamate], with > 3000 nM; and `Cc1ncc2c(n1)N(C)CCN(c1cccc(COC(CCN(C)C(=O)OC(C)(C)C)c3cccs3)c1)C2=O` (stereo not shown) [Example 143, tert-butyl (3-((3-(2,9-dimethyl-5-oxo-5,7,8,9-tetrahydro-6H-pyrimido[4,5-e][1,4]diazepin-6-yl)benzyl)oxy)-3-(thiophen-2-yl)propyl)(methyl) carbamate], with > 3000 nM; and `Cc1ncc2c(n1)N(C)CCN(c1cccc(OC(CCN(C)C(=O)OCC[Si](C)(C)C)c3cccs3)c1)C2=O` (stereo not shown) [Example 144, 2-(trimethylsilyl)ethyl (3-(3-(2,9-dimethyl-5-oxo-5,7,8,9-tetrahydro-6H-pyrimido[4,5-e][1,4]diazepin-6-yl)phenoxy)-3-(thiophen-2-yl)propyl)(methyl) carbamate], with > 3000 nM. Take `CN(CC[C@@H](OCc1cccc(N2CCN(C)c3ncncc3C2=O)c1)c1ccccc1)C(=O)OC(C)(C)C` [Example 145, tert-Butyl (R)-methyl(3-((3-(9-methyl-5-oxo-5,7,8,9-tetrahydro-6H-pyrimido[4,5-e][1,4]diazepin-6-yl)benzyl)oxy)-3-phenylpropyl)carbamate]: the Ki is > 3000 nM. Turning to `CN(CCC(OCc1cccc(N2CCN(C)c3ncncc3C2=O)c1)c1cccs1)C(=O)OC(C)(C)C` (stereo not shown) [Example 146, tert-butyl methyl(3-((3-(9-methyl-5-oxo-5,7,8,9-tetrahydro-6H-pyrimido[4,5-e][1,4]diazepin-6-yl)benzyl)oxy)-3-(thiophen-2-yl)propyl)carbamate], the Ki is > 3000 nM. For `CN(CCC(Oc1cccc(N2CCN(C)c3ncncc3C2=O)c1)c1cccs1)C(=O)OCC[Si](C)(C)C` (stereo not shown) [Example 147, 2-(trimethylsilyl)ethyl methyl(3-(3-(9-methyl-5-oxo-5,7,8,9-tetrahydro-6H-pyrimido[4,5-e][1,4]diazepin-6-yl)phenoxy)-3-(thiophen-2-yl)propyl)carbamate] the value was > 3000 nM.

In the case of `CNCC(Oc1cccc(N2CCN(C)c3nc(SC)ncc3C2=O)c1)c1ccccc1` (stereo not shown) [Example 155, 9-methyl-6-(3-(2-(methylamino)-1-phenylethoxy)phenyl)-2-(methylthio)-6,7,8,9-tetrahydro-5H-pyrimido[4,5-e][1,4]diazepin-5-one], the Ki is > 3000 nM.

With `CCNc1ncc2c(n1)N(C)CCN(c1cccc(OC(CN)c3ccccc3)c1)C2=O` (stereo not shown) [Example 156, 6-(3-(2-amino-1-phenylethoxy)phenyl)-2-(ethylamino)-9-methyl-6,7,8,9-tetrahydro-5H-pyrimido[4,5-e][1,4]diazepin-5-one], the Ki is > 3000 nM. For `CCNc1ncc2c(n1)N(C)CCN(c1cccc(OC(C)CNC)c1)C2=O` (stereo not shown) [Example 157, 2-(ethylamino)-9-methyl-6-(3-((1-(methylamino)propan-2-yl)oxy)phenyl)-6,7,8,9-tetrahydro-5H-pyrimido[4,5-e][1,4]diazepin-5-one] the value was 500 to 3000 nM; for `CCNc1ncc2c(n1)N(C)CCN(c1cccc(OC(CNC)C(C)C)c1)C2=O` (stereo not shown) [Example 158, 2-(ethylamino)-9-methyl-6-(3-((3-methyl-1-(methylamino)butan-2-yl)oxy)phenyl)-6,7,8,9-tetrahydro-5H-pyrimido[4,5-e][1,4]diazepin-5-one], 500 to 3000 nM. Regarding `CCNc1ncc2c(n1)N(C)CCN(c1cccc(OCCCNC)c1)C2=O` [Example 168, 2-(ethylamino)-9-methyl-6-(3-(3-(methylamino)propoxy)phenyl)-6,7,8,9-tetrahydro-5H-pyrimido[4,5-e][1,4]diazepin-5-one], the Ki lay in the range of 100 to 500 nM. Consider `CCNc1ncc2c(n1)N(C)CCN(c1cccc(OCCNC)c1)C2=O` [Example 170, 2-(ethylamino)-9-methyl-6-(3-(2-(methylamino)ethoxy)phenyl)-6,7,8,9-tetrahydro-5H-pyrimido[4,5-e][1,4]diazepin-5-one], for which the inhibition constant Ki was 100 to 500 nM.

Consider `CCNc1ncc2c(n1)N(C)CCN(c1cccc(CCCNC)c1)C2=O` [Example 171, 2-(ethylamino)-9-methyl-6-(3-(3-(methylamino)propyl)phenyl)-6,7,8,9-tetrahydro-5H-pyrimido[4,5-e][1,4]diazepin-5-one], for which the Ki fell in the range of 100 to 500 nM. Consider `CCNc1ncc2c(n1)N(C)CCN(c1cccc(CCNC)c1)C2=O` [Example 172, 2-(ethylamino)-9-methyl-6-(3-(2-(methylamino)ethyl)phenyl)-6,7,8,9-tetrahydro-5H-pyrimido[4,5-e][1,4]diazepin-5-one], for which the Ki fell in the range of 100 to 500 nM.

`CCNc1ncc2c(n1)N(C)CCN(c1cccc(CNC)c1)C2=O` [Example 174, 2-(ethylamino)-9-methyl-6-(3-((methylamino)methyl)phenyl)-6,7,8,9-tetrahydro-5H-pyrimido[4,5-e][1,4]diazepin-5-one]: the Ki lay in the range of 500 to 3000 nM. For `CCNc1ncc2c(n1)N(C)CCN(c1cccc(OC3CCNC3)c1)C2=O` (stereo not shown) [Example 175, 2-(ethylamino)-9-methyl-6-(3-(pyrrolidin-3-yloxy)phenyl)-6,7,8,9-tetrahydro-5H-pyrimido[4,5-e][1,4]diazepin-5-one], the Ki is 100 to 500 nM. For `CCNc1ncc2c(n1)N(C)CCN(c1cccc(O)c1)C2=O` [Example 177, 2-(ethylamino)-6-(3-hydroxyphenyl)-9-methyl-6,7,8,9-tetrahydro-5H-pyrimido[4,5-e][1,4]diazepin-5-one], the Ki was > 3000 nM.

On to `CCNc1ncc2c(n1)N(C)CCN(c1ccc(O)cc1)C2=O` [Example 178, 2-(ethylamino)-6-(4-hydroxyphenyl)-9-methyl-6,7,8,9-tetrahydro-5H-pyrimido[4,5-e][1,4]diazepin-5-one], for which the Ki was > 3000 nM.
